Type in all cases: in vivo, mice
Test [1] deals with MCA205 tumors. The test can be described thus: Tumor growth in fibrosarcoma model, ketotifen, doxorubicin, anti-PD-L1. The following applies: for tumor growth: monotherapy. As for the experimental part:
(§1) A fibrosarcoma syngeneic tumor model was generated by subcutaneous implantation of 2.5×10^5 MCA205 cells in 50 μL of serum-free medium into the flank of 6-week old C57BL/6 female mice. A osteosarcoma syngeneic tumor model was generated by implanting K7M2 wt tumor chunks into the fat pad of 6-week old BALB/c female mice.
(§2) Mice bearing sarcoma tumors were pre-treated with 10 mg/kg daily ketotifen followed by three or four doses of doxorubicin and/or an immune checkpoint inhibitor anti-PD-L1 antibody. Mouse monoclonal anti-PD-L1 (B7-H1, clone 10F.9G2, BioXCell) was used. Doxorubicin hydrochloride was prepared as a ready-made solution of 2 mg/ml. Anti-PD-L1 antibody was administered at a final dose of 10 mg/kg and doxorubicin at 5 mg/kg.
Mice bearing MCA205 tumors were pretreated with daily ketotifen 10 mg/kg or equal volume of diluent (control group) once the average tumor size reached 40 mm^3, prior to the neoadjuvant treatment. Doxorubicin and anti-PD-L1 combination treatment initiated when tumors reached an average size of 150 mm^3 (day 7) and was administered as i.p. injections every three days (day 7, 10, and 13) for three doses. Daily ketotifen continued until completion of doxorubicin-anti-PD-L1 combination treatment.
(§3) Primary tumors were resected and stored when they reached an average size of 700 mm^3 on day 16 and mice were monitored for re-challenge experiments. Similarly, K7M2 wt tumors were pretreated with daily ketotifen 10 mg/kg or equal volume of diluent (control group) once the average tumor size reached 80 mm^3 (day 18) and continued until completion of neoadjuvant treatment. Doxorubicin and anti-PD-L1 combination treatment started when tumors reached an average size of 150 mm^3 (day 22) and repeated on day 25, 28 and 31. Study ended when tumors reached a mean volume of 550 mm 3 (day 33). Mice were sacrificed and tumors were collected for ex vivo analysis.

The test system of test [2] is K7M2 wt tumors. The test can be described thus: Tumor growth in osteosarcoma model, ketotifen, doxorubicin, anti-PD-L1. The following applies: for tumor growth: monotherapy. As for the experimental part:
as §1, §2, §3

Test [3] deals with MCA205 tumors. Description: Contrast-enhanced ultrasound of vascular and functional perfusion, ketotifen. As to conditions: during ketotifen treatment. As for the experimental part:
(§4) Vascular perfusion and functional perfusion were measured simultaneously during the course of ketotifen treatment, using contrast-enhanced ultrasound in mice bearing MCA205 and mice bearing K7M2 wt tumors.

Test [4] relates to K7M2 wt tumors. Described as above. The following applies: during ketotifen treatment. As for the experimental part:
as §4

Test [5] concerns MCA205 tumors. Description: Interstitial fluid pressure (IFP), wick-in-needle technique, ketotifen. As for the experimental part: Interstitial fluid pressure (IFP) was measured in vivo using the “wick-in-needle” technique after mice were anesthetized with i.p. injection of Avertin and prior to tumor excision. Additional information regarding the wick-in-needle technique is described in Dong et al., Involvement of mast cell chymase in burn wound healing in hamsters 2013; 5:643-7 and Shankaran et al. IFNγ and lymphocytes prevent primary tumour development and shape tumour immunogenicity 2001; 410:1107-11, the contents of which are incorporated herein by reference in their entirety.

Test [6] relates to MCA205 fibrosarcoma tumors. Description: Shear wave elastography of tumor elastic modulus, ketotifen. From the text:
The mechanotherapeutic potential of ketotifen in reducing matrix stiffness was primarily assessed non-invasively and longitudinally using ultrasound elastography. Assessment of tumor elastic modulus was […] via shear wave elastography using a Philips EPIQ Elite Ultrasound scanner with an eL 18-4 linear array.

[7] abbreviates: anti-PD-L1 (10 mg/kg) and/or doxorubicin (5 mg/kg) combined with 10 mg/kg daily ketotifen.

On to `COc1cccc2c1C(=O)c1c(O)c3c(c(O)c1C2=O)C[C@@](O)(C(=O)CO)C[C@@H]3O[C@H]1C[C@H](N)[C@H](O)[C@H](C)O1` [doxorubicin], for which the tumor growth entry in test [1] and in test [2] was “Neither anti-PD-L1 nor doxorubicin monotherapies significantly affected tumor growth” each time.
`CN1CCC(=C2c3ccccc3CC(=O)c3sccc32)CC1` [ketotifen]: the antitumor response result in test [1] (setting [7]) and in test [2] (setting [7]) was “induced a significant antitumor response” in each case. Moreover, the tumor growth entry in test [1] and in test [2] was “no antitumor effect” in each case. Also, the functional perfusion entry in test [3] and in test [4] was “significant increase” each time. For the same compound, the vascular perfusion entry in test [3] and in test [4] was “significant increase” in each case. For the same compound, the IFP result is reported as “greatest effect” in test [5] (10 mg/kg dose of ketotifen compared with other doses) and “reduced the IFP” in test [5] (all doses of ketotifen, daily for 7 days). The “Young's modulus” value in test [6] (10 mg/kg ketotifen) is 20 kPa. Also, the “tissue stiffness (ultrasound elastography)” value in test [6] (10 mg/kg ketotifen compared with other doses) was “reduced tissue stiffness the most”.

The record behind these values is US20240024317A1, “CANCER TREATMENT USING BOSENTAN IN COMBINATION WITH A CHECKPOINT INHIBITOR” (Materia Therapeutics Inc., priority 2020, published 2024).
